Test results taken from patent US20080125516A1, “Dispersible long-acting mold-proof polyurethanes or urethane adducts and mold-proof materials made thereof” (HEADWAY ADVANCED MATERIALS INC., priority 2006, published 2008).

Assay: Solubility in solvents
Assay type: physicochemical

Measured: Solubility

COC(=O)Nc1nc2ccccc2[nH]1 [Unmodified Mold-Proof Agent, methy benzimidazol-2-ylcarbamate]
<0.3%: Dimethylformamide (DMF) | Ethyl acetate (EAC) | Methanol (ME) | Methyl-Ethyl Ketone (MEK) | N,N-dimethylacetamide (DMAC)
